Test results as given in PMC5641551, “Chemical Proteomics for Target Discovery of Head-to-Tail Cyclized Mini-Proteins” (Frontiers in Chemistry, 2017).
No end group written: not given here.

System: 14-3-3 proteins in living Jurkat cells
Assay: photo-affinity pull down on living Jurkat cells with competitor
Assay type: binding, human
Conditions: 2 h incubation with bait, [T20K]kB1 competitor at 60-fold molar excess, UV irradiation
Experimental: Biotin-LC-LC-labeled (ThermoFisher) peptides (1–5 nmoles) with or without (non-biotinylated) competitor ([…]) for 2 h at 4°C in the presence of protease inhibitors. UV-activation of photo-crosslinking moiety benzophenone was induced by irradiation at 360 nm on ice for 15 min (Stratalinker, Stratagene, CA, United States). Streptavidin-coated magnetic nanobeads 2–4 mg (1–3-fold excess of binding capacity to applied biotin-bait) facilitated the precipitation (Hyglos, Bernried, Germany). The binding could proceed overnight at 4°C. The supernatants were removed and the beads were washed several times, unless stated otherwise and used for SDS-PAGE, unless stated otherwise. For cyclotide experiments the following peptides were used: biotinylated [T20K]kB1 or [T20K,W23Bpa]kB1 as bait and [T20K]kB1, [T20K,W23Bpa]kB1, or R18 ([…]; Sigma Aldrich), a 14-3-3 family specific peptide inhibitor, as competitors. Generally, beads were washed with lysis buffer containing 1% (v/v) Triton-X100 and 0.2% SDS (w/v) and protease inhibitor cocktail for 3 h followed by wash with 0.12 mM phosphate buffered high saline (PBhS) pH 7.4, 1 M NaCl and 12 mM KCl, 1 mM EDTA for 2 h. Lastly, the beads were washed three times for 5 min with lysis buffer. […] Peptide-protein co-precipitations of 14-3-3 proteins and cyclotides were analyzed with GST-tagged 14-3-3β protein (0.25 μg; EnzoLifeSciences, New York, United States). […]

## CGETCVGGTCNTPGCKCSWPVCTRNGLPV (also: bicyclic or more (positions not given here)) [[T20K]kB1, synthetic cyclotide drug candidate, Thr20 to Lys mutant of kalata B1]
  retention of labeled 14-3-3 proteins on affinity beads in presence of competitor: competitively reduced
